Data on 1 compound can be found in US20090318492A1, “INDOLE COMPOUNDS HAVING C4-ACIDIC SUBSTITUENTS AND USE THEREOF AS PHOSPHOLIPASE-A2 INHIBITORS” (priority 2005, published 2009).

The target in data set [1] is T1, human group 1B PLA2 (hps PLA2) (Homo sapiens, UniProt P04054).
T1 construct: made in house; host or cells: E. coli
Kind of data set: Example 8 fluorimetric PLA2 inhibition assay (PPyrPM), human enzyme. The class given is biochemical. An excerpt: In this example, a fluorimetric assay procedure was used to evaluate the indole and indole-related compounds of the invention as inhibitors of group 1B phospholipase A2 (PLA2) from human, mouse and porcine. A description of this assay is found in articles: Leslie, C C and Gelb, M H (2004) Methods in Molecular Biology “Assaying phospholipase A2 activity”, 284:229-242; Singer, A G, et al. (2002) Journal of Biological Chemistry “Interfacial kinetic and binding properties of the complete set of human and mouse groups I, II, V, X, and XII secreted phospholipases A2”, 277:48535-48549, which are incorporated herein as references.
In general, this assay used a phosphatidylmethanol substrate with a pyrene fluorophore on the terminal end of the sn-2 fatty acyl chain. Without being bound by theory, close proximity of the pyrenes from neighboring phospholipids in a phospholipid vesicle caused the spectral properties to change relative to that of monomeric pyrene. Bovine serum albumin was present in the aqueous phase and captured the pyrene fatty acid when it is liberated from the glycerol backbone owing to the PLA2-catalyzed reaction. […] The effect of a given inhibitor and inhibitor concentration on human, mouse and porcine phospholipase was determined. […]
The following procedure was performed to evaluate the inhibitory potency of the evaluated compounds. • 1. […]

Data set [2] is described as follows: Example 9 mouse pharmacokinetic study. The class given is in vivo. Particulars: serum, PO 30 mg/kg vs IV 3 mg/kg, male CD-1 mice. Here is the method: The plasma exposure of male CD-1 mice to indole and indole-related test articles (TAs) following intravenous (IV, 3 mg/kg) and oral (PO, 30 mg/kg) routes of administration was measured. This model was used to investigate the bioavailability of indole and indole-related TAs in mouse. Mice were selected for the study since they are an accepted species frequently used in pre-clinical evaluation of drugs intended for human use.
Male CD-1 mice (7-8 weeks old) were obtained from Charles River Laboratories (Wilmington, Mass.). Two groups (N=18 and 27) of male CD-1 mice were used for the study. Upon arrival, the animals were placed on Rodent Diet 5001 (Purina Mills, Inc., St. Louis, Mo.). […]
All animals were weighed on study day (1) and the body weights were recorded and used for dose calculation. […] Clinical observations were recorded as needed.
Analysis of serum samples was performed by LC/MS/MS (Waters Quattro Premier, Milford, Mass.). Areas under curves (AUC) were calculated using Graphpad Prism Version 4. Bioavailability was calculated using the following equation: […]
where AUC0-t=total area under curve at the last measurable time point Based on the serum levels analyzed by LC/MS/MS, the calculated bioavailability of indole and indole-related TAs in CD-1 mice is summarized in Table 4.3.

A short description of data set [3]: Example 14 toxicology, daily oral gavage for 5 consecutive days. The data set is classed as in vivo. As to conditions: mice. The text has this: The purpose of this study was to evaluate the toxicity of indole and indole-related Test Articles when administered daily via oral gavage to mice for 5 consecutive days.
Assessment of toxicity was based on mortality; clinical signs, body weight, food consumption, clinical pathology, and macroscopic pathology data.

T1 sequence (P04054 23-148): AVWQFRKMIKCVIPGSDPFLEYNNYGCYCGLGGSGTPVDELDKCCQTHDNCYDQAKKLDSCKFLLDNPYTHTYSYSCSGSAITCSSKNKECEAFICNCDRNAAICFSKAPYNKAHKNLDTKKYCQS

Broadly, the IC50 is the concentration that gives 50% inhibition. Read a high IC50 as a need for much substance. The term bioavailability denotes the share of a dose that reaches the circulation, judged against a reference dose that is usually intravenous. A low value points to little systemic uptake. `Cc1c(C(=O)C(N)=O)c2c(OCC(=O)NS(=O)(=O)CCCC(=O)O)cccc2n1Cc1ccccc1` [ILY-IV-40, 4-[2-(3-Aminooxalyl-1-benzyl-2-methyl-1H-indol-4-yloxy)-acetylsulfamoyl]-butyric acid] gave an IC50 in data set [1] of 390 nM. Also, the bioavailability in data set [2] is 0.5%. The “clinical pathology differences between vehicle control group and treated groups attributable to test article” value in data set [3] is listed as “no differences”.
